In the supplement of paper PMC10307832:

Columns and labels:
Test in all cases: relative viability (nuclei count vs DMSO), 5 days (fraction); higher = more cells survive
[1] = compound: C1=CC=C(C(=C1)C2=CC=C(C=C2)C3=CSC4=C3C(=C(C(=O)N4)C#N)O)O + C[C@@H](Oc1cc(-c2cnn(C3CCNCC3)c2)cnc1N)c1c(Cl)ccc(F)c1Cl [Crizotinib] (partner 1 µM)
Method in brief: (§1)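 Relative viability equals treated-well nuclei counts divided by vehicle-well nuclei counts. Counts came from 4× images of lung cancer cell lines grown in 1536-well plates for 5 days after pin-tool dosing on the day after seeding. Dosing used one drug alone or a fixed anchor-drug dose plus five library-drug doses (not always all listed) in √10 steps, and values are medians of duplicate plates.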

[2] = compound: C1=CC=C(C(=C1)C2=CC=C(C=C2)C3=CSC4=C3C(=C(C(=O)N4)C#N)O)O + Cc1nc(NC(=O)N2CCC[C@H]2C(N)=O)sc1-c1ccnc(C(C)(C)C(F)(F)F)c1 [Alpelisib] (partner 2 µM)
Method in brief: as §1

[3] = compound: C1=CC=C(C(=C1)C2=CC=C(C=C2)C3=CSC4=C3C(=C(C(=O)N4)C#N)O)O + C[C@]1(O)C[C@@H](c2nc(-c3ccc4ccc(-c5ccccc5)nc4c3)c3c(N)nccn32)C1 [Linsitinib] (partner 1 µM)
Method in brief: as §1

[4] = compound: C1=CC=C(C(=C1)C2=CC=C(C=C2)C3=CSC4=C3C(=C(C(=O)N4)C#N)O)O + O=C(c1cc(Cc2n[nH]c(=O)c3ccccc23)ccc1F)N1CCN(C(=O)C2CC2)CC1 [Olaparib] (partner 8 µM)
Method in brief: as §1

Cell Line	relative viability ([1]; first compound 0.08 µM)	relative viability ([1]; first compound 0.253 µM)	relative viability ([1]; first compound 0.8 µM)	relative viability ([1]; first compound 2.53 µM)	relative viability ([1]; first compound 8 µM)	relative viability ([2]; first compound 0.08 µM)	relative viability ([2]; first compound 0.253 µM)	relative viability ([2]; first compound 0.8 µM)	relative viability ([2]; first compound 2.53 µM)	relative viability ([2]; first compound 8 µM)	relative viability ([3]; first compound 0.08 µM)	relative viability ([3]; first compound 0.253 µM)	relative viability ([3]; first compound 0.8 µM)	relative viability ([3]; first compound 2.53 µM)	relative viability ([3]; first compound 8 µM)	relative viability ([4]; first compound 0.08 µM)	relative viability ([4]; first compound 0.253 µM)	relative viability ([4]; first compound 0.8 µM)	relative viability ([4]; first compound 2.53 µM)	relative viability ([4]; first compound 8 µM)
NCI-H1437	0.699	0.989	0.883	1.01	0.765	0.713	1.16	0.994	1.09	0.883	0.668	1.37	1.03	1.21	0.81	0.616	0.74	0.668	0.641	0.606
NCI-H1651	0.878	0.823	0.851	0.878	0.826	0.65	1.06	1.08	1.05	0.854	0.807	0.9	1.02	0.868	0.788	0.185	0.182	0.197	0.186	0.16
NCI-H1666	0.914	1.15	0.731	0.769	1.03	0.792	1.18	0.861	1.14	0.987	0.753	0.817	0.873	1	0.653	0.731	0.715	0.767	0.737	0.747
NCI-H1703	0.452	0.811	0.827	0.844	0.56	0.31	0.313	0.328	0.301	0.385	0.803	0.446	0.589	0.507	0.76	0.422	0.417	0.682	0.336	0.362
NCI-H1734	0.627	0.703	0.689	0.634	0.444	0.658	0.675	0.697	0.724	0.542	0.734	0.849	0.882	1.01	0.646	0.601	0.687	0.678	0.601	0.529
NCI-H1755	0.74	0.916	0.738	0.97	0.827	0.861	0.957	0.941	1.03	0.883	0.934	1.17	0.889	1.19	0.97	0.989	0.901	0.875	0.841	0.916
NCI-H1915	0.806	1.05	0.828	0.937	0.65	1.11	1.07	1.07	1.08	0.991	1.2	1.15	1.08	1.19	1.01	0.298	0.265	0.262	0.273	0.246
NCI-H1944	1.08	1.19	1.07	1.23	1.04	0.806	0.952	0.888	0.856	0.864	1.19	1.18	1.09	1.14	1.19	0.465	0.433	0.386	0.464	0.373
NCI-H1975	0.852	1.03	1.01	1.05	0.721	0.508	0.694	0.542	0.721	0.485	0.926	0.802	1.04	1.02	0.796	0.692	0.901	0.796	0.893	0.535
NCI-H1993	0.794	0.922	0.816	0.776	0.741	0.684	0.624	0.69	0.594	0.655	0.617	0.882	0.713	0.709	0.802	0.988	1.67	0.894	1.01	0.882
NCI-H2009	0.916	1.03	1.01	1.04	0.955	1.11	1.09	1.14	1.11	1.09	1.14	1.24	1.17	1.15	1.15	0.649	0.668	0.924	0.591	0.714
NCI-H2023	0.546	0.759	0.607	0.701	0.538	0.517	0.591	0.644	0.607	0.585	0.671	0.713	0.591	0.605	0.592	0.467	0.49	0.495	0.487	0.607
NCI-H2085	0.704	0.983	0.859	0.952	0.867	0.872	1.08	1	0.973	0.879	0.878	0.904	0.935	1.09	0.773	0.754	0.847	0.771	0.796	0.702
NCI-H2087	0.845	1.04	0.914	1.02	0.825	1.07	1.27	1.16	1.11	1.13	1.14	1.04	0.946	1.08	0.966	0.513	0.587	0.667	0.811	0.496
NCI-H2126	0.921	1.11	1	1.09	0.912	0.784	0.809	0.748	0.77	0.731	0.71	0.721	0.699	0.678	0.704	0.888	0.976	0.95	0.955	0.786
NCI-H2228	0.385	0.505	0.495	0.33	0.392	0.585	0.927	0.712	0.803	0.816	0.623	0.627	0.686	0.648	0.666	0.425	0.604	0.568	0.613	0.575
NCI-H2347	0.717	0.807	0.558	0.658	0.687	0.959	1.09	0.968	1.04	0.964	0.993	1.13	0.961	0.99	0.844	0.645	0.632	0.569	0.634	0.579
NCI-H2405	0.787	0.844	0.855	0.812	0.787	0.761	0.834	0.867	0.715	0.715	0.972	1.05	0.956	0.831	0.848	0.896		0.928	0.825	0.878
NCI-H3122	0.317	0.34	0.248	0.271	0.302	0.795	0.909	0.89	0.844	0.902	1.1	1.07	1.06	1.05	1.02	0.715	0.675	0.573	0.645	0.45
PC-3 [JPC-3]	0.986	1.12	0.915	1	0.891	1.17	1.05	1.06	1.12	1.01	1.1	1.06	0.989	0.952	1.09	1.11	1.37	1.15	1.23	1.24
PC-14	0.851	0.859	0.869	1.02	0.907	0.761	1.17	0.853	0.981	0.71	0.93	1.12	0.978	1.09	0.745	0.352	0.261	0.252	0.255	0.28
RERF-LC-KJ	0.875	0.885	0.858	0.86	0.763	0.769	0.935	0.961	0.782	0.69	0.93	1.03	0.877	0.911	0.831	0.956	1.03	0.963	1.02	0.8
SK-LU-1	0.895	0.995	0.837	0.85	0.661	0.834	1.15	1.13	1.07	0.974	1.31	1.11	1.16	1.19	1.15	0.465	0.431	0.435	0.608	0.408
SK-MES-1	1.05	1.05	0.905	1.05	0.951	0.863	0.985	0.96	0.782	0.675	1.18	1.17	0.952	1.03	0.987	0.863	0.816	0.858	0.651	0.611
SW 1573	0.683	0.796	0.897	0.797	0.61	0.726	0.974	0.758	0.624	0.583	0.812	0.875	0.951	0.834	0.721	0.51	0.464	0.502	0.439	0.384
UMC-11	0.547	0.506	0.574	0.487	0.622	0.668	0.73	1.01	1.2	0.793	0.834	0.738	1.11	1.24	0.875		0.396	0.435	0.425	0.417
